Source: patent US20100215710A1, “Beta-2 Adrenergic Receptor Agonists and Antagonists and Modulation of Wound Healing” (The Regents of the University of California, priority 2005, published 2010)

Columns and labels:
[1] = system: phospho-ERK; assay: Phospho-ERK immunolocalization in keratinocytes; format: cell-based, human
Description: (§1) Sterile glass cover-slips (Fisher Scientific, Pittsburgh, Pa.) were transferred into 12 well dishes and collagen-coated with 60 μg/ml collagen I in KGM for 1 hour at 37° C. Cover-slips were washed three times with KGM and 3×10^4 cells were added per well and allowed to attach overnight. Cells were untreated, treated with 1 μM β-AR agonist for 15 minutes, OA (10 nM) for 45 minutes, or pre-treated with OA (10 nM) for 30 minutes prior to the addition of 1 μM β-AR agonist for 15 minutes. All steps were performed at room temperature unless otherwise noted. Cover slips were washed twice in PBS and fixed for 10 minutes in 4% paraformaldehyde. Cover-slips were washed twice in PBS between each step. Cells were permeabilized for 5 minutes with 0.1% Triton-X-100/PBS, blocked with 5% goat serum/PBS for 20 minutes, primary monoclonal anti-vinculin antibody (Sigma, St. Louis, Mo.) or anti-phospho-ERK antibody (Cell Signaling Technology, Beverly, Mass.) were added drop-wise in 1% goat serum/PBS (1:100) and incubated for 1 hour at 37° C. A goat anti-mouse cy3 (Jackson labs, West Grove, Pa.) (1:100) antibody was then added in 1% goat serum/PBS for 1 hour at 37° C. Alexa 488-phalloidin (Molecular Probes, Eugene, Oreg.) (1:40) in PBS was added to the vinculin-stained cover-slips for 20 minutes. […]

[2] = system: human keratinocytes; assay: Single cell migration assay, keratinocytes (clenbuterol, OA); format: cell-based
Description: All single cell migration assays were performed on cells plated on glass cover-slips inserted into 35 mm plastic dishes (MatTek Corp., Ashland, Mass.) that had been coated for 1 hour at 37° C. with 60 μg/ml collagen L Cells were plated onto the collagen-coated glass cover-slips at a density of 250 cells/mm^2 for 3-6 hours at 37° C. Cells were either untreated (control), pre-treated with 10 nM okadaic acid (OA) (10 nM) for 45 minutes prior to the addition of OA (10 nM) and clenbuterol (1 μM) (OA/Clen) or treated with either OA or clenbuterol (1 μM) alone at time 0. The dishes were inserted into metal plates, maintained at 37° C., on inverted Nikon Diaphot microscopes to monitor single cell migration. Time-lapse images of the cell migratory response were digitally captured every 10 minutes over a one-hour period by Q-Imaging Retiga-EX cameras (Burnaby, BC, Canada) controlled by a custom automation written in Improvision Open Lab software (Lexington, Mass.) on a Macintosh G4. After each cell's center of mass was tracked using the Open Lab software, migration speed and distance were calculated and imported to Excel (Microsoft Corporation, Redmond, Wash.). Significance was taken as p<0.01, using Student's t test (unpaired) to compare the means of the control and β-AR agonist-treated cell populations.
Keratinocytes were plated onto collagen-coated glass cover-slips at a concentration of 250 cells/mm^2 in KGM for 3-6 hours at 37° C. The migration of each single cell was monitored over a one-hour period, and the results were analyzed in excel as described. The speed of migration ([…]) is represented graphically in FIG. 1 Panel C, control n=57, clenbuterol n=57, OA n=60, OA-clenbuterol n=44. The data are representative of three independent experiments with at least two different keratinocyte strains. * P<0.01 between β-AR agonist and controls; #P<0.01 between OA-clenbuterol and clenbuterol alone.

[3] = system: human keratinocytes; assay: Immunofluorescent staining of actin and vinculin, keratinocytes (β-AR agonist, OA); format: cell-based
Description: as §1

[4] = OA 10 nM pre-treatment prior to 1 μM β-AR agonist

C=C1[C@@H](O)[C@@H]2O[C@]3(CC[C@H](/C=C/[C@@H](C)[C@@H]4CC(C)=C[C@@]5(O[C@H](C[C@@](C)(O)C(=O)O)CC[C@H]5O)O4)O3)CC[C@H]2O[C@@H]1[C@@H](O)C[C@H](C)[C@H]1O[C@@]2(CCCCO2)CC[C@H]1C [OA, okadaic acid]
effect on level of ERK phosphorylation or localization ([1]; OA 10 nM alone): no effect
effect on agonist-induced loss of lamellipodial phospho-ERK localization and nuclear/peri-nuclear decrease [1, 4]: prevents
effect on keratinocyte migration ([2]; OA 10 nM alone): no effect
effect on clenbuterol-induced reduction in speed ([2]; OA 10 nM pre-treatment, then OA plus 1 μM clenbuterol): completely prevents
effect on cytoskeletal conformation ([3]; OA 10 nM alone, 45 minutes): no effect
effect on β2-AR-mediated change in cytoskeletal conformation [3, 4]: prevents
